Assay [1] concerns Escherichia coli ATCC 9723H. In kind it is cell-based. The source says:
(§1) From the novel candidate AMP sequences predicted by AMPlify, 11 were selected for validation in vitro. Minimum inhibitory concentrations (MIC) and minimum bactericidal concentrations (MBC) were obtained using the AST procedures outlined by the Clinical and Laboratory Standards Institute (CLSI), with the recommended adaptations for testing cationic AMPs described by Hancock.
(§2) A panel of two Gram-positive and four Gram-negative bacterial isolates was generated to test predicted AMPs. Staphylococcus aureus ATCC 6538P, Streptococcus pyogenes (hospital isolate, unknown strain), Pseudomonas aeruginosa ATCC 10148, and Escherichia coli ATCC 9723H were obtained and tested at the University of Victoria. Additionally, a multi-drug resistant (MDR), carbapenemase-producing New-Delhi metallobetalactamase (CPO-NDM) clinical isolate of Escherichia coli was obtained from the BC Centre for Disease Control. E. coli ATCC 29522 was purchased from Cedarlane Laboratories (Burlington, Ontario, Canada) for comparison of AMP activity between a wild type, drug-susceptible control and the MDR strain. The latter two strains were tested at the BC Centre for Disease Control using identical AST procedures.
(§3) Bacteria were streaked onto nonselective nutrient agar from frozen stocks and incubated for 18–24 h at 37 °C. To prepare a standardized bacterial inoculum, isolated colonies were suspended in Mueller-Hinton Broth (MHB) and adjusted to an optical density of 0.08–0.1 at 600 nm, equivalent to a 0.5 McFarland standard and representing approximately 1–2 × 10^8 CFU/mL (CFU: colony forming units). The inoculum was diluted 1/250 in MHB to the target concentration of (5 ± 3) × 10^5 CFU/mL. Total viability counts from the final inoculum were examined to confirm the target bacterial density was obtained.
(§4) Selected candidate AMPs were purchased from Genscript (Piscataway, NJ), where they were synthesized using the vendor’s Flexpeptide platform. Lyophilized peptides were suspended in sterile ultrapure water or filter-sterilized 0.2% acetic acid as recommended by solubility testing reports provided with the GenScript synthesis. AMPs were diluted from 2560 to 5 μg/mL by a two-fold serial dilution in a 96-well polypropylene microtitre plate before 100 μl of the standardized bacterial inoculum of (5 ± 3) × 10^5 CFU/mL was added to each well. This generated a final test range of 256 to 0.5 μg/mL. MIC values were reported as the peptide concentration that produced no visible bacterial growth after a 16–24 h incubation at 37 °C.
(§5) For each AMP dilution series, the contents of the MIC well and the two adjacent wells containing two- and four-fold MIC were plated onto nonselective nutrient agar and incubated for 24 h at 37 °C. The concentration which killed 99.9% of the initial inoculum was determined to be the MBC.

The subject of assay [2] is Staphylococcus aureus ATCC 6538P. In kind it is cell-based.
Text: as §1, §2, §3, §4, §5

The subject of assay [3] is E. coli ATCC 25922. In kind it is cell-based, Escherichia coli.
Text: as §1
as §2, with “E. coli ATCC 29522 was purchased from Cedarlane Laboratories (Burlington, Ontario, Canada) for comparison of AMP activity between a wild type, drug-susceptible control and the MDR strain.” left out
as §3, §4, §5

Assay [4] has as its system MDR E. coli (CPO-NDM) clinical isolate. The class given is cell-based, Escherichia coli.
Text: as §1, §2, §3, §4, §5

Assay [5] concerns all E. coli strains tested. In kind it is cell-based, Escherichia coli.
Text: as §1, §2, §3, §4, §5

Assay [6] has as its system Streptococcus pyogenes (unknown strain; hospital isolate). In kind it is cell-based.
Text: as §1, §2, §3, §4, §5

Assay [7] deals with at least one of the ten bacterial species tested: Bacillus subtilis, Micrococcus luteus, Staphyloccus aureus, Staphylococcus epidermis, Escherichia coli …. Set-up: method as in Won and co-workers [2]; key: ✓: Whether the peptide shows antimicrobial activity against at least one of the ten bacterial species tested in the work. Conditions: activity against at least one of ten bacterial species; blank cell = not active; ref Won and co-workers [2]; cited from earlier work.

[8] abbreviates: range over all E. coli strains tested (ATCC 9723H, ATCC 25922, MDR CPO-NDM).

Converted amounts (≈) assume the structure as drawn. Read-outs that look alike come from different tables or passages of the source. Where a SMILES comes first, the peptide text is derived from it. Where no end group is shown, it is not given here. Bounds are passed on as bounds.

The text below walks through data of article PMC8788131, “AMPlify: attentive deep learning model for discovery of novel antimicrobial peptides effective against WHO priority pathogens” (BMC Genomics, 2022).

Broadly, the MBC is the lowest tested concentration that kills the bacteria rather than only halting them. In general, MIC refers to the lowest concentration that inhibits growth of the organism. Take FFPRVLPLANKFLPTIYCALPKSVGN [RaCa-7]: the MBC in assay [1] (ATCC 9723) is 32 to 256 µg/mL; in assay [1] (ATCC 9723, 24 h), 11 to 88 µM; in assay [3] (ATCC 25922), 16 to 128 µg/mL; in assay [3] (ATCC 25922, 24 h), 6 to 44 µM; in assay [4], 16 to 128 µg/mL; in assay [4] (24 h), 6 to 44 µM. In assay [5] (all strains tested), this compound had an MBC of 6 to 88 µM. Besides, the MIC in assay [2] (ATCC 6538) is not below 88 µM; in assay [5] (all strains tested), 6 to 44 µM.

As for `CC[C@H](C)[C@H](NC(=O)[C@H](CCCCN)NC(=O)[C@@H](NC(=O)[C@H](C)NC(=O)[C@H](Cc1ccccc1)NC(=O)[C@H](CC(=O)O)NC(=O)[C@H](CCCCN)NC(=O)CNC(=O)[C@@H](NC(=O)[C@@H](NC(=O)[C@H](CCCCN)NC(=O)[C@@H](NC(=O)[C@@H](NC(=O)[C@H](CC(=O)O)NC(=O)[C@H](CC(C)C)NC(=O)[C@H](CC(C)C)NC(=O)CN)[C@@H](C)CC)[C@@H](C)CC)[C@@H](C)O)[C@@H](C)O)C(C)C)C(=O)N[C@@H](CC(C)C)C(=O)N[C@@H](CC(=O)O)C(=O)N[C@@H](CC(N)=O)C(=O)N[C@@H](CC(C)C)C(=O)N[C@@H](CCCCN)C(=O)N[C@@H](CS)C(=O)N[C@@H](CCCCN)C(=O)N[C@@H](CC(C)C)C(=O)N[C@@H](C)C(=O)NCC(=O)NCC(=O)N[C@@H](CS)C(=O)N1CCC[C@H]1C(=O)N1CCC[C@H]1C(=O)O` [RaCa-1] (H-GLLDIIKTTGKDFAVKILDNLKCKLAGGCPP-OH; N-terminus and C-terminus assumed), the minimum bactericidal concentration (MBC) in assay [1] (ATCC 9723) is 128 to 256 µg/mL; in assay [1] (ATCC 9723, 24 h), 39 to 79 µM; in assay [6], not below 256 µg/mL; in assay [6] (24 h), not below 79 µM; in assay [3] (ATCC 25922), 32 to 128 µg/mL; in assay [3] (ATCC 25922, 24 h), 10 to 39 µM. Also, the MBC in assay [4] was 64 to 128 µg/mL; in assay [4] (24 h), 20 to 39 µM; in assay [5] (all strains tested), 10 to 79 µM. Also, the results for the MIC in assay [6] and in assay [5] (all strains tested) were 256 µg/mL (≈ 78.9 µM) and 10 to 39 µM, respectively.

Regarding Gaegurin 5 [GGN5], the “Active?” value in assay [7] is “✓”.

`CC[C@H](C)[C@H](NC(=O)[C@H](CO)NC(=O)[C@H](CCCCN)NC(=O)CNC(=O)[C@@H](NC(=O)[C@@H](NC(=O)[C@H](CCCCN)NC(=O)[C@@H](NC(=O)[C@@H](NC(=O)[C@H](CCC(=O)O)NC(=O)[C@H](Cc1c[nH]c2ccccc12)NC(=O)[C@H](CC(C)C)NC(=O)CN)[C@@H](C)O)[C@@H](C)CC)[C@@H](C)O)[C@@H](C)O)C(=O)N[C@@H](C)C(=O)N[C@@H](CC(C)C)C(=O)N[C@@H](CC(N)=O)C(=O)N[C@@H](CC(C)C)C(=O)N[C@@H](CC(C)C)C(=O)N[C@@H](CC(=O)O)C(=O)N[C@@H](CCCCN)C(=O)N[C@H](C(=O)N[C@@H](CCCCN)C(=O)N[C@@H](CS)C(=O)N[C@@H](CCCCN)C(=O)N[C@H](C(=O)N[C@@H](C)C(=O)NCC(=O)NCC(=O)N[C@@H](CS)C(=O)N1CCC[C@H]1C(=O)N1CCC[C@H]1C(=O)O)[C@@H](C)CC)[C@@H](C)CC` [RaCa-3] (H-GLWETIKTTGKSIALNLLDKIKCKIAGGCPP-OH; N-terminus and C-terminus assumed): the MBC fell in the range of 16 to 32 µg/mL in assay [1] (ATCC 9723); 5 to 10 µM in assay [1] (ATCC 9723, 24 h); 8 to 16 µg/mL in assay [3] (ATCC 25922); 2 to 5 µM in assay [3] (ATCC 25922, 24 h); 16 to 64 µg/mL in assay [4]; 5 to 20 µM in assay [4] (24 h). Moreover, the MBC in assay [5] (all strains tested) was in the range of 2 to 20 µM. For the same compound, the MIC in assay [4] lay in the range of 16 to 32 µg/mL; in assay [5] (all strains tested), 2 to 10 µM.

Consider `CC[C@H](C)[C@H](NC(=O)[C@@H](NC(=O)[C@@H]1CCCN1C(=O)[C@H](Cc1ccccc1)NC(=O)[C@@H](N)Cc1ccccc1)[C@@H](C)CC)C(=O)N[C@@H](C)C(=O)N[C@@H](CCCNC(=N)N)C(=O)N[C@@H](CC(C)C)C(=O)N[C@@H](C)C(=O)N[C@@H](C)C(=O)N[C@@H](CCCCN)C(=O)N[C@H](C(=O)N[C@H](C(=O)N1CCC[C@H]1C(=O)N[C@@H](CO)C(=O)N[C@@H](CC(C)C)C(=O)N[C@H](C(=O)N[C@@H](CS)C(=O)N[C@@H](C)C(=O)N[C@H](C(=O)N[C@H](C(=O)N[C@@H](CCCCN)C(=O)N[C@@H](CCCCN)C(=O)N[C@@H](CS)C(=O)O)[C@@H](C)O)C(C)C)C(C)C)[C@@H](C)CC)C(C)C` [RaCa-2] (H-FFPIIARLAAKVIPSLVCAVTKKC-OH; N-terminus and C-terminus assumed), for which the MBC in assay [1] (ATCC 9723) was 8 to 16 µg/mL; in assay [1] (ATCC 9723, 24 h) it was 3 to 6 µM; in assay [2] (ATCC 6538), 2 to 4 µg/mL; in assay [2] (ATCC 6538, 24 h), 1 to 2 µM; in assay [6], 64 to 128 µg/mL; in assay [6] (24 h), 25 to 49 µM. Further, the MBC was in the range of 4 to 16 µg/mL in assay [3] (ATCC 25922); 2 to 6 µM in assay [3] (ATCC 25922, 24 h); 4 to 16 µg/mL in assay [4]; 2 to 6 µM in assay [4] (24 h). Further, the MIC in assay [4] was 4 to 16 µg/mL; in assay [5] (all strains tested), 2 to 6 µM.

In the case of `CC[C@H](C)[C@H](NC(=O)[C@H](CCCCN)NC(=O)[C@H](CCC(=O)O)NC(=O)[C@H](CCCCN)NC(=O)[C@H](CO)NC(=O)[C@H](CCCCN)NC(=O)[C@H](CCCNC(=N)N)NC(=O)[C@H](Cc1ccccc1)NC(=O)[C@H](Cc1ccccc1)NC(=O)[C@H](CC(=O)O)NC(=O)CNC(=O)[C@H](CC(C)C)NC(=O)[C@@H](N)CC(C)C)C(=O)NCC(=O)N[C@@H](CCCCN)C(=O)N[C@@H](CCC(=O)O)C(=O)N[C@@H](Cc1ccccc1)C(=O)N[C@@H](CCCCN)C(=O)N[C@@H](CCCNC(=N)N)C(=O)N[C@H](C(=O)N[C@H](C(=O)N[C@@H](CCC(N)=O)C(=O)N[C@@H](CCCNC(=N)N)C(=O)N[C@H](C(=O)N[C@@H](CCCCN)C(=O)N[C@@H](CC(=O)O)C(=O)N[C@@H](Cc1ccccc1)C(=O)N[C@@H](CC(C)C)C(=O)N[C@@H](CCCNC(=N)N)C(=O)N[C@@H](CC(N)=O)C(=O)N[C@@H](CC(C)C)C(=O)N[C@H](C(=O)N1CCC[C@H]1C(=O)N[C@@H](CCCNC(=N)N)C(=O)N[C@H](C(=O)N[C@@H](CCC(=O)O)C(=O)N[C@@H](CO)C(=O)O)[C@@H](C)O)C(C)C)[C@@H](C)CC)C(C)C)[C@@H](C)CC` [LL37, reference compound], the minimal bactericidal concentration (MBC) in assay [3] (E. coli ATCC 25922, as Table 3, in µg/mL, range over three independent experiments, NI = no inhibition observed) is 8 to 16 µg/mL; in assay [3] (E. coli ATCC 25922, plated on agar 24 h at 37 °C, kills 99.9% of inoculum, range over three independent experiments, NI = no inhibition observed) it was 2 to 4 µM; in assay [5] (setting [8]), 2 to 7 µM. In addition, the MIC in assay [5] (setting [8]) was 2 to 4 µM.
